The text below walks through data of PMC11879040, “Advancing systemic toxicity risk assessment: Evaluation of a NAM-based toolbox approach” (Toxicological Sciences, 2024).

Where two headings read alike, the source gives them in different places. Bounds are passed on as bounds.

The target in data set [1] is T1, Constitutive androstane receptor CAR, NR1I3 (h) (Homo sapiens, UniProt Q14994).
T1 sequence (Q14994 1-352): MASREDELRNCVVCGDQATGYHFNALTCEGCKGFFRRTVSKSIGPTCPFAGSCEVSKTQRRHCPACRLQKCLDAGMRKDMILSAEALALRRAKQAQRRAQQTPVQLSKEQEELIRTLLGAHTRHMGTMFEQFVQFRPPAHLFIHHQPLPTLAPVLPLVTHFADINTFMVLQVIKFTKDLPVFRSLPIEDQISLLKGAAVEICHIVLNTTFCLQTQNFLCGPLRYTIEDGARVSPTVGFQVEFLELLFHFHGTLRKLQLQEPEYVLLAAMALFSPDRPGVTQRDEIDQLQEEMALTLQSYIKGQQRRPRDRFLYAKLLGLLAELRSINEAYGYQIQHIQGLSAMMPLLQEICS
The data set is classed as biochemical.

Data set [2] deals with Androgen receptor, AR (h) (Homo sapiens, UniProt P10275). The following applies: IPP screening at 10 uM; control testosterone.
A further data set has as its system human. The following applies: human studies; ref [15-18]; cited from earlier work.
For data set [3] the following is noted: at the given pH, single value or median, cited from earlier work.
For data set [4] the following is noted: PBK level L2; taken or scaled from references (median where several); ref [6],[7],[10],[19]; cited from earlier work.
For data set [5] the following is noted: ref [15-18]; cited from earlier work.
For another data set, the system named is CYP2B6. To be noted: PBK level L3, Intrinsic Liver Clearance, ref [12], cited from earlier work.
A further data set has as its system CYP2C19. To be noted: PBK level L3, Intrinsic Liver Clearance, ref [12], cited from earlier work.
The target of data set [6] is T2, Retinoic Acid Receptor gamma, RARG (h) (Homo sapiens, UniProt P13631).
T2 construct: purchased Eurofins Cerep (SafetyScreen44-based IPP panel)
The experiment in a line: IPP RARG binding (assay unavailable by end of study). To be noted: 10 uM; ligand/control 9-cis-Retinoic acid; ** assay was unavailable by the end of the study.

Data set [7] addresses T3, Estrogen receptor beta, ESR2 (h) (Homo sapiens, UniProt Q92731).
T3 construct: purchased Eurofins Cerep (SafetyScreen44-based IPP panel)
Briefly: IPP ESR2 coactivator recruitment (agonist). The following applies: 100 uM, estriol, * denotes assay interference (2-Amino-6-chloro-4-nitrophenol, HC Red 3). The data set is classed as biochemical.

The target of data set [8] is T3, Estrogen receptor beta, ESR2 (h). The experiment in a line: IPP ESR2 coactivator recruitment (antagonist). The format is biochemical. The following applies: 100 uM, estriol, * denotes assay interference (2-Amino-6-chloro-4-nitrophenol, HC Red 3).
Data set [9] is described as follows: PBK model plasma Cmax estimate (Gastroplus 9.8; levels L1, L2, L3). Also noted: species or system human. The following applies: therapeutic uses.
Data set [10] can be described thus: intestinal absorption (PBK input). The following applies: levels L2/L3, converted from [38]. The data set is classed as in vitro ADME.
The conditions of data set [11]: PBK input, levels L2/L3; ref [4]; cited from earlier work.
Data set [12] in a line: hepatic intrinsic clearance (Clint). The following applies: PBK input.
Data set [13] has as its target T4, Peroxisome proliferator-activated receptor alpha, PPARA (h) (Homo sapiens, UniProt Q07869).
T4 sequence (Q07869 1-468): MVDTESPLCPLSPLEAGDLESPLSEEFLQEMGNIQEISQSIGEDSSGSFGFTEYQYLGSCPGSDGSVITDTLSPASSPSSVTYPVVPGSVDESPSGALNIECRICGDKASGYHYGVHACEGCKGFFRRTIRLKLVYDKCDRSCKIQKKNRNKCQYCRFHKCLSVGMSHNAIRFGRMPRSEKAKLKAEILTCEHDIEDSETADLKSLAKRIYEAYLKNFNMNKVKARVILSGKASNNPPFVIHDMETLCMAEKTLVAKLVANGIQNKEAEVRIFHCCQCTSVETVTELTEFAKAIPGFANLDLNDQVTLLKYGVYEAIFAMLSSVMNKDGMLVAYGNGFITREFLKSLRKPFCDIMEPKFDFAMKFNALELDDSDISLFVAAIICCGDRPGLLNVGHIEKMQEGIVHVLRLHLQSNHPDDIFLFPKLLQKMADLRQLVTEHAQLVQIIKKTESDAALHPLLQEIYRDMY
The experiment in a line: IPP PPARA coactivator recruitment (antagonist). The data set is classed as biochemical. To be noted: 10 uM; antagonist; ligand GW 7647.

Data set [14] deals with T5, Vitamin D3 receptor, VDR (h) (Homo sapiens, UniProt P11473). The data set is classed as biochemical. The following applies: 10 uM; agonist; calcitriol for control.
The target of data set [15] is T5, Vitamin D3 receptor, VDR (h). The data set is classed as biochemical. The following applies: 10 uM; antagonist; ligand calcitriol.

T3 sequence (Q92731 whole entry): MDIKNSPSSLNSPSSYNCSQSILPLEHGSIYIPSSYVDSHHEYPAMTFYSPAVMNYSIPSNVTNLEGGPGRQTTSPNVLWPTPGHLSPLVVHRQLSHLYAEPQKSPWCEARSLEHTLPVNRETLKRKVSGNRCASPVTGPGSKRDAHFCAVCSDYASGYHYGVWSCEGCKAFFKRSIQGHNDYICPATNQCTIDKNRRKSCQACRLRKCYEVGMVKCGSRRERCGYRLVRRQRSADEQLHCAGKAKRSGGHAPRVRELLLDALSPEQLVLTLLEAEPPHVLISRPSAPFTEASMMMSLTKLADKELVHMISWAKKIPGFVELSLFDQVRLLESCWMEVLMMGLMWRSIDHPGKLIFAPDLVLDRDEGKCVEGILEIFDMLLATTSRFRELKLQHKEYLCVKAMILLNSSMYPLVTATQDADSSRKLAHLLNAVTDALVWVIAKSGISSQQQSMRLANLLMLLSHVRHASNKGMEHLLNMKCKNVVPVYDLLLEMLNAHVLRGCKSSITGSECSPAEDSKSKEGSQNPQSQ
T5 sequence (P11473 whole entry): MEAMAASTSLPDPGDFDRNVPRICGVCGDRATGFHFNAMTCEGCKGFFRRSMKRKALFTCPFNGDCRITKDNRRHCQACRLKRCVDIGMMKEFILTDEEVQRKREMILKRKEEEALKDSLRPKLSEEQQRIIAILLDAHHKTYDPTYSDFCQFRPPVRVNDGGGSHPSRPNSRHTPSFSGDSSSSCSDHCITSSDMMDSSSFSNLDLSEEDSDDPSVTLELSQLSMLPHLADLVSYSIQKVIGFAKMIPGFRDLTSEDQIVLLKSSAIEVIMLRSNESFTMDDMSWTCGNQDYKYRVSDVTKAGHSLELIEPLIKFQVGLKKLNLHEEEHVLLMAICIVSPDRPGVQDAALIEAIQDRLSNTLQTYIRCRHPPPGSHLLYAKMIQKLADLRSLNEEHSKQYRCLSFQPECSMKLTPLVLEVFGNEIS
T2 sequence (P13631 whole entry): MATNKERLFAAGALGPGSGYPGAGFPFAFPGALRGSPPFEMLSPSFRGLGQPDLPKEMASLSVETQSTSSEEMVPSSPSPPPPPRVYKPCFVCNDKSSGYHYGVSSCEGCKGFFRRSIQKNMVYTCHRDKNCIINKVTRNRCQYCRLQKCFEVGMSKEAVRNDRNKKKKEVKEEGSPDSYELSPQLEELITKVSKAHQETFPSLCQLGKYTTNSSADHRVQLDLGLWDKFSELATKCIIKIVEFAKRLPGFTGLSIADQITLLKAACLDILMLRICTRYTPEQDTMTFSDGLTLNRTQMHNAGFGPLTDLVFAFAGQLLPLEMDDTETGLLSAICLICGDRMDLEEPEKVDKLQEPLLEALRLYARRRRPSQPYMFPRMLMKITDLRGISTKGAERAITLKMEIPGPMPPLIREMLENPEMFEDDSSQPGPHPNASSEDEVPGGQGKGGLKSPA
Androgen receptor, AR (h), sequence (P10275 whole entry): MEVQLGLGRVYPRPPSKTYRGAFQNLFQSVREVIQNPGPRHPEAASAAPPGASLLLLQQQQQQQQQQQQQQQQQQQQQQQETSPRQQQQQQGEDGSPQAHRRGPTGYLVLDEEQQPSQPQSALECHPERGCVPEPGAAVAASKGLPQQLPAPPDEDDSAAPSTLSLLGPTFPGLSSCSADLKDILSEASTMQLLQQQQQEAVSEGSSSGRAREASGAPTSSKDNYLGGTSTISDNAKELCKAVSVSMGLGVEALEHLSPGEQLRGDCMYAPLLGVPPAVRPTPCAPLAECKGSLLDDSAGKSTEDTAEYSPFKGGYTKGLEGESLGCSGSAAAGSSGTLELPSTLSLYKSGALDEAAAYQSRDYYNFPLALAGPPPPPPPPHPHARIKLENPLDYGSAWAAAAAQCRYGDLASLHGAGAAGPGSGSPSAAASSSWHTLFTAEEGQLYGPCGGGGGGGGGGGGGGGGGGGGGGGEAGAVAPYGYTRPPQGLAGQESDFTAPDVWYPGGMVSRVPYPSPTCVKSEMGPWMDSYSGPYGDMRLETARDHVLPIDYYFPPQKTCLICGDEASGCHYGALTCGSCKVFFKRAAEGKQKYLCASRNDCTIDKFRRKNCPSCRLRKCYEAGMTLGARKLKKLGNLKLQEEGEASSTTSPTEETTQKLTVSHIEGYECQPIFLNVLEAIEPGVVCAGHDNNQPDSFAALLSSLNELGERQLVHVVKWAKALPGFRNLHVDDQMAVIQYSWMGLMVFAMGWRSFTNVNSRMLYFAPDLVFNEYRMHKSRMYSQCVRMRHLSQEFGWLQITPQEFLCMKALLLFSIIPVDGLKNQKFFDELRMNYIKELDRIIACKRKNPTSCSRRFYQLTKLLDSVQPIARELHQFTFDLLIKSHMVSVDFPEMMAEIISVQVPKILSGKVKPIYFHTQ

On to `CCOP(=S)(OCC)Oc1nc(Cl)c(Cl)cc1Cl` [Chlorpyrifos, O,O-Diethyl O-(3,5,6-trichloropyridin-2-yl) phosphorothioate], for which, in [1], the “IPP screening %, Coactivator recruitment” value is reported as -5.1%. Moreover, the Specific binding in data set [2] is listed as 5.8%. Also, the NOAEL in the data set with human is listed as 0.1 mg/kg bw/day. Besides, the “Aqueous Solubility” value in data set [3] (PBK level L2, ref [1],[4],[5],[10],[11],[17],[26]) is 1.26 µg/mL; in data set [3] (PBK level L3, ref [4],[5],[10],[11]) it was 1.26 µg/mL. Further, in [4], the “Intrinsic Liver Clearance” value is given as 131.95 L/h. Further, the oral reference dose in data set [5] was 0.01 mg/kg bw/day. Moreover, the “Vmax CYP2B6 (CPFO)” value with CYP2B6 is on record as 418 uL/min/nmol CYP. In addition, the Km in the data set with CYP2B6 (read-out: km CYP2B6 (CPFO)) is 0.12 µM; in the data set with CYP2C19 (read-out: km CYP2C19 (TCP)), 1.09 µM. For the same compound, in the data set on CYP2C19, the “Vmax CYP2C19 (TCP)” value was 2296 uL/min/mol CYP.
Turning to `CC(C)(C)c1ccc(CCOc2ncnc3ccccc23)cc1` [Fenazaquin, 4-[2-(4-tert-Butylphenyl)ethoxy]quinazoline], in data set [6], the “IPP screening %, Specific binding” value is given as 35.0%.
For `CC1(C)O[C@@H]2[C@@H](CO[C@@]3(COS(N)(=O)=O)OC(C)(C)O[C@@H]23)O1` [Topiramate, [(3aS,5aR,8aR,8bS)-2,2,7,7-Tetramethyltetrahydro-2H,3aH,7H-bis[1,3]dioxolo[4,5-b:4',5'-d]pyran-3a-yl]methyl sulfamate (non-preferred name)], the “IPP screening %, Coactivator recruitment” value in data set [7] is reported as -2.0%; in data set [8], -10.0%. Besides, the “underprediction of the L3 result at L2 (Cmax)” value in data set [9] is given as no less than 5 fold. The compound also returned a Peff in [10] of 3.75 cm/s x E-04. In addition, in data set [11], the Fup is 79.5%. In addition, the “Intrinsic Liver Clearance” value was determined as 15.02 L/h in data set [12] (level L2, scaled from [6] internal data (unpublished)) and 0.874 L/h in [12] (level L3, optimised based on [39]).
Consider “(4S,4aR,5S,5aR,6S,12aS)-4-(Dimethylamino)-3,5,6,10,12,12a-hexahydroxy-6-methyl-1,11-dioxo-1,4,4a,5,5a,6,11,12a-octahydrotetracene-2-carboxamide--hydrogen chloride (1/1) [Oxytetracycline hydrochloride]”, for which the “IPP screening %, Coactivator recruitment” value in [13] was determined as 42.3%.
Consider “mixture of 2- and 3-tert-butyl-4-methoxyphenol [Butylated Hydroxyanisole]”, for which the “IPP screening %, Coactivator recruitment” value in [13] is 4.4%; in data set [14], -0.1%; in data set [15], 3.0%.

For orientation: NOAEL means the highest tested level that showed no adverse finding. The term Aqueous Solubility denotes the dissolved amount per volume that the medium holds. By Km is commonly meant the substrate concentration at which the rate is half of its maximum.
